Source: US20260166039A1 (SCHRÖDINGER, INC., priority 2022, published 2026)
Read-outs that look alike come from different tables or passages of the source.

Experiments:
[1] = test system: phosphorylation of Cdc2 Y15 (Wee1 substrate) in A427 cells; assay: Phosphorylated Cdc2 MSD Electrochemiluminescence Assay; format: cell-based; settings: Homo sapiens
Method: Phosphorylated Cdc2 MSD Electrochemiluminescence Assay
The effect of Wee1 inhibitors on cellular phosphorylation of the Wee1 substrate Cdc2 was determined using the following protocol:
A total of 40,000 A427 cells in 100 uL culture medium (1640 medium+10% Fetal bovine serum+1% Penicillin-Streptomycin) were plated in 96-well cell culture plates. 3-fold serial dilutions of test compounds were prepared in completed PBS at 25× final concentration. After 20 hours, the plates were removed and 4 μL of each were added to the cells and incubated with shaking for 30 minutes at 37° C., 5% CO2. Each concentration was tested in duplicate. After a total 6 hours incubation, plates were removed and centrifuged for 5 minutes and 100 uL of supernatant from each well was removed. Cells were washed with 200 μL PBS and lysed with 50 μL MSD lysis buffer (Meso Scale Diagnostics) supplied with 1× complete ULTRA cocktail inhibitor (Roche).
To detect phosphorylation of Cdc2 Y15, 30 μL of capture antibody solution (CST catalog #9116S 1:200) was added into each well of the MSD plate (MSD catalog #L15XB-6), sealed and incubated at 4° C. with shaking (450 rpm) overnight. The antibody solution was removed, wells blocked with BSA solution and plates washed three times with PBST, followed by addition of 30 μl of cell lysate per well. After 2 hours of incubation, plates were washed three times with PBST. 30 μL of 1× detection antibody solution (CST catalog #4539S 1:200) was then added to each well and incubated for 1 hour. Plates were washed three times with PBST and 30 μL of 1× secondary antibody solution (MSD, catalog #:R32AB-1, 1:5000) was added to each well and incubated for 1 hour. Plates were washed three times with PBST and 150 μL of 1× Read Buffer T (MSD, catalog #R92TC-1) was added to each well of the MSD plate. The electrochemiluminescence signal was measured on a MESO SECTOR S600 plate reader. The percentage of remaining phosphorylated Cdc2 signal was calculated following the equation below.
[formula] • HC (high control): Cells treated with DMSO • Cpds: Cells treated with test compounds • LC (low control): Cells treated with positive control Wee1 inhibitor

[2] = biological target: T1, Wee1 kinase domain (Homo sapiens, UniProt P30291); assay: Wee1 Kinase Biochemical Assay (ADP-Glo); settings: 15 uM ATP
T1 construct: Wee1 kinase domain was purchased from Carna (catalog #05-177); purchased Carna 05-177
T1 sequence (P30291 299-569 limits assumed): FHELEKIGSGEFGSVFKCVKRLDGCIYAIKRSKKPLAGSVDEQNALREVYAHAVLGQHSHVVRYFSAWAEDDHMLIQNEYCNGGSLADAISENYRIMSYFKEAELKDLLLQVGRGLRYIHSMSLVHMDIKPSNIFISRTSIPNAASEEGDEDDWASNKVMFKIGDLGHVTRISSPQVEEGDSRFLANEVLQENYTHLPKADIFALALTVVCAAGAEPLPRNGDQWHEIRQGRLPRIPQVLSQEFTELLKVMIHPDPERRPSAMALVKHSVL
Method in brief: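 Poly(Lys,Tyr 4:1) phosphorylation by the kinase domain is followed as ADP output (ADP-Glo) after 4 h at 25 °C, with ATP at 15 uM. Values are percent inhibition between vehicle and full-inhibition controls.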

[3] = A-427, class symbols, read-out: A427 pCDC2 MSD IC50
[4] = class symbols, 1 nM Wee1 enzyme, 4 hours at 25° C.
[5] = 1 nM Wee1 enzyme, 4 hours at 25° C

IC50 [2, 4] [nM]	IC50 ([2]; Wee1 kinase domain, ADP-Glo) [nM]	also measured	SMILES
< 10		IC50 [1, 3]: 100 to 1000 nM	CNCc1cccc(N2c3nc(Nc4ccc(N5CCOC[C@H]5C)cc4)ncc3[C@@]3(C)COC(C)(C)C[C@@H]23)n1 (single isomer, unassigned) [Example 473]
	< 10	IC50 ([1]; A-427, pCDC2 MSD): < 100 nM	CC1(C)C[C@H]2N(c3cccc(N=S(C)(C)=O)n3)c3nc(Nc4ccc([C@@H]5CCNC5)cc4)ncc3[C@@]2(C)CO1 (single isomer, unassigned) [Example 131]
	< 10	IC50 ([1]; A-427, pCDC2 MSD): 100 to 1000 nM	Cc1cc(Nc2ncc3c(n2)N(c2cccc(N4C(=O)OC[C@@H]4C)n2)[C@@H]2CC(C)(C)OC[C@]32C)ccc1[C@H]1CCNC1 (single isomer, unassigned) [Example 267]
	< 10	IC50 ([1]; A-427, pCDC2 MSD): 100 to 1000 nM	C[C@H]1COC(=O)N1c1cccc(N2c3nc(Nc4ccc(N5CCN(C)CC5)nn4)ncc3[C@@]3(C)COC(C)(C)C[C@@H]23)n1 [Example 249]
	< 10	IC50 ([1]; A-427, pCDC2 MSD): 1000 to 10000 nM	CC1(C)C[C@H]2N(c3cccc(N=S(C)(C)=O)n3)c3nc(Nc4cn(C5COC5)cn4)ncc3[C@@]2(C)CO1 (single isomer, unassigned) [Example 232]
	< 10	IC50 ([1]; A-427, pCDC2 MSD): 100 to 1000 nM	CN1CCC(c2ccc(Nc3ncc4c(n3)N(c3cccc(N=S(C)(C)=O)n3)[C@@H]3CC(C)(C)OC[C@]43C)cc2F)CC1 (single isomer, unassigned) [Example 177]
< 10		IC50 [1, 3]: 100 to 1000 nM	CC1(C)C[C@H]2N(c3cccc(N=S(C)(C)=O)n3)c3nc(NC(=O)C4CC4)ncc3[C@@]2(C)CO1 (single isomer, unassigned) [Example 399]
	< 10	IC50 ([1]; A-427, pCDC2 MSD): 100 to 1000 nM	CNCc1cccc(N2c3nc(Nc4ccc(N5CCN(C)CC5)cc4)ncc3[C@@]3(C)COC(C)(C)C[C@@H]23)n1 (single isomer, unassigned) [Example 94]
		IC50 ([1]; A-427, pCDC2 MSD): 1000 to 10000 nM	CC1(C)C[C@H]2N(c3cccc([C@@H]4CCCN4)n3)c3nc(Nc4ccn(C5CCOCC5)c(=O)c4)ncc3[C@@]2(C)CO1 (single isomer, unassigned) [Example 392, 1-(tetrahydro-2H-pyran-4-yl)-4-(((4bR,8aR)-4b,7,7-trimethyl-9-(6-((S)-pyrrolidin-2-yl)pyridin-2-yl)-4b,5,7,8,8a,9-hexahydropyrano[3′,4′:4,5]pyrrolo[2,3-d]pyrimidin-2-yl)amino)pyridin-2(1H)-one]
10 to 100			Cc1cc(Nc2ncc3c(n2)N(c2cccc(N4CCCC4=O)n2)[C@H]2CC(C)(C)OC[C@@]32C)ccc1N1C[C@H]2C[C@@H]1CN2C [Example 659, 1-(6-((4bS,8aS)-4b,7,7-trimethyl-2-((3-methyl-4-((1R,4R)-5-methyl-2,5-diazabicyclo[2.2.1]heptan-2-yl)phenyl)amino)-4b,7,8,8a-tetrahydropyrano[3′,4′:4,5]pyrrolo[2,3-d]pyrimidin-9(5H)-yl)pyridin-2-yl)pyrrolidin-2-one]
10 to 100			CN1CC[C@H]2CN(c3ccc(Nc4ncc5c(n4)N(c4cccc(N6CCOC6=O)n4)[C@H]4CC(C)(C)OC[C@@]54C)cc3)C[C@H]21 [Example 685, 3-(6-((4bS,8aS)-4b,7,7-trimethyl-2-((4-((3aS,6aS)-1-methylhexahydropyrrolo[3,4-b]pyrrol-5(1H)-yl)phenyl)amino)-4b,7,8,8a-tetrahydropyrano[3′,4′:4,5]pyrrolo[2,3-d]pyrimidin-9(5H)-yl)pyridin-2-yl)oxazolidin-2-one]
100 to 1000			CNCc1cccc(N2c3nc(Nc4cnn(C)c4)ncc3[C@]3(C)COC(C)(C)C[C@H]23)n1 (single isomer, unassigned) [Example 471]
	≥ 1000		CNCc1cccc(N2c3nc(Nc4ccc(N5C(=O)CC[C@@H]5C)cc4)ncc3[C@]3(C)COC(C)(C)C[C@H]23)n1 (single isomer, unassigned) [Example 27]
		IC50 [2, 5]: < 10 nM	CC1(C)C[C@H]2N(c3cccc(N=S(C)(C)=O)n3)c3nc(Nc4cncc(C(F)F)c4)ncc3[C@@]2(C)CO1 (single isomer, unassigned) [Example 815]
	≥ 1000		CNCc1cccc(N2c3nc(Nc4ccc(C(C)(C)C(=O)N(C)C)cc4)ncc3[C@]3(C)COC(C)(C)C[C@H]23)n1 (single isomer, unassigned) [Example 75]
10 to 100			CC1(C)C[C@H]2N(c3cccc(N=S(C)(C)=O)n3)c3nc(NC(=O)C4(F)CC4)ncc3[C@@]2(C)CO1 (single isomer, unassigned) [Example 410]

IC50 [2, 4] [nM]	IC50 ([2]; Wee1 kinase domain, ADP-Glo) [nM]	also measured	SMILES
< 10			CC1(C)C[C@H]2N(c3cccc(N=S(C)(C)=O)n3)c3nc(Nc4ccc(N5CCN6CCC[C@H]6C5)cc4)ncc3[C@@]2(C)CO1 (single isomer, unassigned) [Example 507]
< 10			CN1C[C@@H]2C[C@H]1CN2c1ccc(Nc2ncc3c(n2)N(c2ccccn2)[C@@H]2CC(C)(C)OC[C@]32C)cc1 [Example 800, (4bR,8aR)-4b,7,7-trimethyl-N-(4-((1S,4S)-5-methyl-2,5-diazabicyclo[2.2.1]heptan-2-yl)phenyl)-9-(pyridin-2-yl)-4b,5,7,8,8a,9-hexahydropyrano[3′,4′:4,5]pyrrolo[2,3-d]pyrimidin-2-amine]
100 to 1000			CC1(C)C[C@@H]2N(c3cccc([C@@H]4CCCN4)n3)c3nc(Nc4ccc(N5CCOCC5)cc4)ncc3[C@]2(C)CO1 (single isomer, unassigned) [Example 525]
≥ 1000			CC1(C)C[C@@H]2N(c3ccc4c(n3)[C@@](C)(N)CC4)c3nc(Nc4ccc(N5CCOCC5)cc4)ncc3[C@]2(C)CO1 (single isomer, unassigned) [Example 566]
	100 to 1000		CN[C@H](Cc1ccc(Nc2ncc3c(n2)N(c2cccc(N4C(=O)OC[C@@H]4C)n2)[C@H]2CC(C)(C)OC[C@@]32C)cc1)C(=O)O (single isomer, unassigned) [Example 322]
	10 to 100		C[C@H]1COC(=O)N1c1cccc(N2c3nc(Nc4ccc(O[C@H]5CCNC5)nc4)ncc3[C@]3(C)COC(C)(C)C[C@H]23)n1 (single isomer, unassigned) [Example 284]
10 to 100			CN1[C@@H]2C[C@H]1CN(c1ccc(Nc3ncc4c(n3)N(c3cccc(N5CCOC5=O)n3)[C@H]3CC(C)(C)OC[C@@]43C)cc1)C2 [Example 701, 3-(6-((4bS,8aS)-4b,7,7-trimethyl-2-((4-((1R,5S)-6-methyl-3,6-diazabicyclo[3.1.1]heptan-3-yl)phenyl)amino)-4b,7,8,8a-tetrahydropyrano[3′,4′:4,5]pyrrolo[2,3-d]pyrimidin-9(5H)-yl)pyridin-2-yl)oxazolidin-2-one]
10 to 100			CC1(C)C[C@@H]2N(c3cccc([C@H]4CNCCO4)n3)c3nc(Nc4ccc(N5CCOCC5)cc4)ncc3[C@]2(C)CO1 [Example 738, (4bS,8aS)-4b,7,7-trimethyl-9-(6-((R)-morpholin-2-yl)pyridin-2-yl)-N-(4-morpholinophenyl)-4b,5,7,8,8a,9-hexahydropyrano[3′,4′:4,5]pyrrolo[2,3-d]pyrimidin-2-amine]
		IC50 [2, 5]: < 10 nM	CN(C)C1CCN(c2ccc(Nc3ncc4c(n3)N(c3ccccn3)[C@@H]3CC(C)(C)OC[C@]43C)cc2)CC1 (single isomer, unassigned) [Example 819]
100 to 1000			CC1(C)C[C@@H]2N(c3cccc(C4(F)CNC4)n3)c3nc(Nc4ccc(N5CCOCC5)cc4)ncc3[C@]2(C)CO1 (single isomer, unassigned) [Example 546]
	10 to 100		Cc1cc(Nc2ncc3c(n2)N(c2cccc(N=S(C)(C)=O)n2)[C@H]2CC(C)(C)OC[C@@]32C)ccc1[C@@H]1COCCN1 (single isomer, unassigned) [Example 113]
		IC50 [2, 5]: < 10 nM	CC1(C)C[C@H]2N(c3cccc(N=S(C)(C)=O)n3)c3nc(Nc4ccn(C5CC5)n4)ncc3[C@@]2(C)CO1 (single isomer, unassigned) [Example 831]
	100 to 1000		[2H]C([2H])([2H])N1CCC(c2ccc(Nc3ncc4c(n3)N(c3cccc(N=S(C)(C)=O)n3)[C@H]3CC(C)(C)OC[C@@]43C)cc2)CC1 (single isomer, unassigned) [Example 161]
	10 to 100		Cc1cc(Nc2ncc3c(n2)N(c2cccc(N4C(=O)OC[C@@H]4C)n2)[C@H]2CC(C)(C)OC[C@@]32C)ccc1O[C@@H]1CCNC1 (single isomer, unassigned) [Example 336]
100 to 1000			CC1(C)C[C@H]2N(c3cccc(N=S(C)(C)=O)n3)c3nc(Nc4ccncc4)ncc3[C@@]2(C)CO1 (single isomer, unassigned) [Example 512]
